Literature values as cited in patent publication US20060182790A1, “Dermal medicaments application enhancer” (priority 2005, published 2006).

solubility in chloroform (chloroform): practically insoluble | solubility in ethanol (ethanol): slightly soluble | solubility in hexane (hexane): practically insoluble | solubility in methanol (methanol): slightly soluble | solubility in mineral oil (mineral oil): practically insoluble | solubility in water (water): very soluble
Structure (SMILES): Cl.NCC(=O)CCC(=O)O [ALA HCl, 5-amino-4-oxopentanoic acid hydrochloride]
